Earlier results as cited in publication PMC2862725 (Molecular cancer therapeutics, 2009).
Read-outs that look alike come from different tables or passages of the source.

What was measured:
[1] = vIII mutant tumor group; set equal to single-dose PK/PD model ref 9
[2] = wild-type tumor group; set equal to single-dose PK/PD model ref 9
[3] = n = 5, two patients with malignant gliomas

- Vc volume of distribution of the central compartment [1]: 103.8 mL
- Vc volume of distribution of the central compartment [2]: 75.0 mL
- gefitinib brain tumor concentration, mean [3]: 9.4 ± 9.3 µg/g
Structure (SMILES): COc1cc2ncnc(Nc3ccc(F)c(Cl)c3)c2cc1OCCCN1CCOCC1 [gefitinib, Gefitinib]
